Results published in patent publication US9567317B2, “Multicomponent crystalline system comprising nilotinib and selected co-crystal formers” (BASF SE, priority 2012, dated 2017).

Settings: relative humidity changed from 0 to 95% according to the measurement program (FIG. 4)

Cc1cn(-c2cc(NC(=O)c3ccc(C)c(Nc4nccc(-c5cccnc5)n4)c3)cc(C(F)(F)F)c2)cn1.Cl.O.O [Nilotinib monohydrochloride dihydrate form A]
water content change (water uptake): Δm = 4.2%

Cc1cn(-c2cc(NC(=O)c3ccc(C)c(Nc4nccc(-c5cccnc5)n4)c3)cc(C(F)(F)F)c2)cn1.Cl.O [Nilotinib monohydrochloride monohydrate form B]
water content change (water uptake): Δm = 3.2%
